From patent US20050249665A1, “Urea-, glycerate- and, hydroxyamide-headed hydrocarbon chain lyotropic phases forming surfactants” (DBL Australia Pty Ltd., priority 2002, published 2005)
Several values for one entry are separate records, joined by “and”; a condition that tells them apart may be missing. Equal entries are not always repeated. Entries after “also recorded” stand apart in the source; their conditions may differ. Where two headings read alike, the source gives them in different places.

Tests used:
Type in all cases: physicochemical
[1] = Lyotropic behaviour: flooding technique on hot stage, optical microscopy under crossed polarised light
Method: (§1) Preliminary assessment of the phase behaviour of a selected compound was conducted using the ‘flooding’ technique. The flooding technique involves placing the compound between a coverslip and microscope slide and introducing water to the sample to establish a water concentration gradient through the sample. […] If the experiment is conducted on a hot stage, the temperature range over which the particular lyotropic phases exist can also be determined. The phase behaviour can be observed under normal or cross-polarised light using an optical microscope. […] For the purpose of the present invention it was especially useful for identifying which phase was present at the boundary with excess water.

[2] = Flooding experiment: lyotropic phase formed in excess water at 40° C.; also: key: Hll denotes reverse hexagonal phase; conditions: sample maintained at 40° C., crossed polarised light, 200x
Method: as §1
For the surfactant to be useful it preferably forms a viscous lyotropic phase in the presence of excess water. The lyotropic phase formed by the surfactant in excess water was determined by flooding experiments, in which a small amount of lipid (typically 5 mg) is placed between a glass microscope slide and coverslip and water introduced to the sample by capillary action, with the sample maintained at 40° C. by means of a hot stage. Observation under crossed polarised light at 200× magnification allows identification of the phase formed by the visible birefringent texture, or lack thereof.

[3] = Water content of saturated lyotropic phase by Karl Fisher titration; conditions: 300 mg surfactant in excess water, equilibrated at 40° C.; mean of three samples ± SD
Method: The mass of water incorporated in the lyotropic phase was determined by preparing a 300 mg sample of surfactant in excess water, equilibrating at 40° C., and testing the water content of the lyotropic phase by Karl Fisher titration. Values reported are the mean of three separate samples i standard deviation, unless otherwise indicated.

[4] = flooding with water, temperature as stated per example

Structure (SMILES)	Lyotropic phase formed at the interface with water [1, 4]	Temperature at which the hexagonal phase begins to melt ([1]; flooding, heating) [°C]	Temperature at which the hexagonal phase is completely melted / sample completely isotropic ([1]; flooding, heating)	Temperature at which the lyotropic phase forms / begins to form on contact with water ([1]; flooding, heating)	Phase formed in excess water [2]	% water (w/w) in saturated lyotropic phase [3]	Temperature at which the hexagonal phase reappears on cooling ([1]; flooding, cooling) [°C]	Temperature at which the isotropic cubic phase reforms on cooling ([1]; flooding, cooling) [°C]	Temperature at which the isotropic cubic phase has disappeared ([1]; flooding, heating) [°C]	Lyotropic phase formed at the interface with water [1]	Temperature at which the lyotropic phase forms / begins to form on contact with water [1] [°C]
CC(C)CCCC(C)CCCC(C)CCCC(C)CCNC(N)=O (centres unmarked) [Example 3, 3,7,11,15Tetramethyl-hexadecyl urea]	reverse hexagonal phase	72.6	82.1 °C	25 °C	Hll	28.4 ± 2.3 % (w/w)					
CC(C)CCCC(C)CCCC(C)CCOC(=O)C(O)CO (centres unmarked) [2,3-Dihydroxypropionic acid 3,7,11-trimethyl-dodecyl ester]					Hll	24.7 ± 0.7 % (w/w)					
CC(C)CCCC(C)CCCC(C)CCCC(C)CCN(CCO)C(N)=O (centres unmarked) [Example 1, 1-(3,7,11,15tetramethyl-hexadecyl)-1-(2-hydroxyethyl) urea]	reverse hexagonal phase	50.9	58.1 °C	20 °C	Hll		51.1				
CC(C)CCCC(C)CCCC(C)CCCC(C)CC(=O)OCC(O)CO (centres unmarked) [3,7,11,15-tetramethyl-hexadecanoic acid 1-glycerol ester]					Hll	23.1 ± 3.2 % (w/w)					
CCCCCCCC/C=C\CCCCCCCCNC(=O)NCCO [Example 8, 1-(2-Hydroxyethyl)-3-(cis-octadec-9-enyl) urea]			~67 °C							isotropic phase	59.5
CC(C)CCCC(C)CCCC(C)CCCC(C)CC(=O)NC(C)(CO)CO (centres unmarked) [Example 7, 3,7,11,15-tetramethyl-hexadecanoic acid (1,1-bis-hydroxymethyl-ethyl)-amide]	isotropic phase; also recorded: hexagonal phase	25.5	26.7 °C	10-15 °C							
CC(C)CCCC(C)CCCC(C)CCCC(C)CCNC(=O)NCCO (centres unmarked) [Example 2, 1-(3,7,11,15-tetramethyl-hexadecyl)-3-(2-hydroxyethyl) urea]	reverse hexagonal phase	40.4	58 °C and 57.3 °C	below 8 °C	Hll	14.3 ± 4.6 % (w/w)	44.1				

Now from value to compound, other results behind:

Lyotropic phase formed at the interface with water [1, 4]	Temperature at which the hexagonal phase begins to melt ([1]; flooding, heating) [°C]	Temperature at which the hexagonal phase is completely melted / sample completely isotropic ([1]; flooding, heating)	Temperature at which the lyotropic phase forms / begins to form on contact with water ([1]; flooding, heating)	Phase formed in excess water [2]	% water (w/w) in saturated lyotropic phase [3]	Temperature at which the hexagonal phase reappears on cooling ([1]; flooding, cooling) [°C]	Temperature at which the isotropic cubic phase reforms on cooling ([1]; flooding, cooling) [°C]	Temperature at which the isotropic cubic phase has disappeared ([1]; flooding, heating) [°C]	Structure (SMILES)	Lyotropic phase formed at the interface with water [1]	Temperature at which the lyotropic phase forms / begins to form on contact with water [1] [°C]
reverse hexagonal phase	55	> 70 °C	30 °C	Hll	8.1 ± 2.5 % (w/w)				CC(C)CCCC(C)CCCC(C)CCNC(N)=O (centres unmarked) [Example 4, 3,7,11-Trimethyl-dodecyl urea]		
reverse hexagonal phase	~40	48 °C	room temperature	Hll	28.7 ± 2.5 % (w/w)				CC(C)CCCC(C)CCCC(C)CCCC(C)CCOC(=O)C(O)CO (centres unmarked) [Example 6, 2,3-Dihydroxypropionic acid 3,7,11,15-tetramethyl-hexadecyl ester]		
	65	80 °C	30 °C	Hll	16.8 ± 3.9 % (w/w)	77	40	70	CCCCCCCC/C=C\CCCCCCCCOC(=O)C(O)CO (centres unmarked) [Example 5, 2,3-Dihydroxypropionic acid octadec-9-enyl ester]		
reverse hexagonal phase		110 °C	61 °C						CCCCCCCC/C=C\CCCCCCCCNC(N)=O [Example 10, cis-octadec-9enyl urea]		
reverse hexagonal phase		92-93 °C	53 °C						CCCCC/C=C\C/C=C\CCCCCCCCNC(N)=O [Example 11, cis, cis-octadec-9,12-dienyl urea]		
hexagonal phase		107 °C	85 °C						CCCCCCCC/C=C\CCCCCCCCNC(=O)NC(N)=O [Example 9, cis-octadec-9-enyl biuret]		
